The first experiment has as its target T1, His-PKC-theta (Homo sapiens, UniProt Q04759).
T1 construct: His; purchased Invitrogen
The experiment is described as follows: PKC-theta Assay (384-well time resolved fluorescence, IMAP TR-FRET). The class given is biochemical. To be noted: Table 2; read-out: Act. Level (IC50 in the PKC-theta Assay). A digest of the protocol: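 Fam-labeled S6-derived peptide (200 nM) and 10 μM ATP were reacted with 142 pM enzyme for 2 h at room temperature in HEPES pH 7.6 buffer with MgCl2, DTT, Triton X-100, BSA and EDTA. The reaction was stopped with IMAP progressive binding reagent plus Tb donor, incubated overnight, then TR-FRET read.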
For orientation: Time-resolved FRET reads energy transfer from a long-lived donor to a nearby acceptor.
T1 sequence (Q04759 whole entry): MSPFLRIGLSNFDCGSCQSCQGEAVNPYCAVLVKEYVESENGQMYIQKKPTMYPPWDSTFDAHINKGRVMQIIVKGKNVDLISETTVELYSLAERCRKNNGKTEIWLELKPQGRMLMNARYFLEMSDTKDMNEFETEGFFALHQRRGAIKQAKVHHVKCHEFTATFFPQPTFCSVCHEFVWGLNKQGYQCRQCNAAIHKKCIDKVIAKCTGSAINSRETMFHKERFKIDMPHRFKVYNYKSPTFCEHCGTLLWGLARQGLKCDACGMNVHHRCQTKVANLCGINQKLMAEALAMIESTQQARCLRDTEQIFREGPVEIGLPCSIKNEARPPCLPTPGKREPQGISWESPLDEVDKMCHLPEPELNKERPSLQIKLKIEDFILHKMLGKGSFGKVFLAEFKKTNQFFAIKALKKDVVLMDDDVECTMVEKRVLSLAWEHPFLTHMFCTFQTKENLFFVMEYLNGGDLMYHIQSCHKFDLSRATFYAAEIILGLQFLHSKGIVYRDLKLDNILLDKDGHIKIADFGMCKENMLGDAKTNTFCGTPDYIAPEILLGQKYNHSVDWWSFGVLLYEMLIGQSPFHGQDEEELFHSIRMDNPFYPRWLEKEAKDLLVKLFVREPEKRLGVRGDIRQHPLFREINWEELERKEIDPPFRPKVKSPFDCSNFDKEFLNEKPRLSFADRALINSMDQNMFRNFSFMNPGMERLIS
As a reminder, the IC50 is the point on the concentration scale where inhibition reaches its midpoint. On to `COc1ccccc1CCNc1ncc(C#N)c(N[C@@H]2C[C@H](O)C2(C)C)n1` [Cmpd 85], for which the IC50 was in the range of 100 to 800 nM. For the compound `CC1(C)C[C@H](Nc2nc(NCCc3ccc(F)cc3F)ncc2C#N)CC[C@@H]1O` [Cmpd 197], the IC50 lay in the range of 100 to 800 nM. As for `CN1CCN(S(=O)(=O)c2ccc(CCNc3ncc(C#N)c(N[C@@H]4CC[C@H](O)C(C)(C)C4)n3)cc2)CC1` [Cmpd 179], the IC50 was in the range of 100 to 800 nM. On the same count and under the same terms, to `CC1(C)C[C@H](Nc2nc(NCCc3ccc(Cl)cc3Cl)ncc2C#N)CC[C@@H]1O` [Cmpd 100] belongs 100 to 800 nM.

Turning to `CC1(C)[C@H](N)C[C@H]1Nc1nc(NCCc2cccc(Cl)c2)ncc1C#N` [Cmpd 158], the IC50 is 800 to 2000 nM. As to `CC1(C)[C@@H](O)C[C@H]1Nc1nc(NCCc2ccc(C#N)cc2)ncc1C#N` [Cmpd 38], the IC50 was 100 to 800 nM. In the case of `N#Cc1cnc(NCc2ccccc2OC(F)F)nc1N[C@H]1CC[C@@H](O)CC1` [Cmpd 4], the IC50 lay in the range of 100 to 800 nM. Turning to `CC(F)(F)COc1ccc(CCNc2ncc(C#N)c(N[C@@H]3CC[C@H](O)C(C)(C)C3)n2)cc1` [Cmpd 151], the IC50 was < 100 nM. On to `CC1(C)[C@@H](O)C[C@H]1Nc1nc(NCCc2cccc3ccccc23)ncc1C#N` [Cmpd 128], for which the IC50 fell in the range of 100 to 800 nM.

As for `CC1(C)[C@@H](Nc2nc(NCCc3cccc(Cl)c3)ncc2C#N)C[C@@H]1C(N)=O` [Cmpd 162], the IC50 fell in the range of 100 to 800 nM. As for `CC1(C)[C@@H](CO)C[C@@H]1Nc1nc(NCCc2cccc(Cl)c2)ncc1C#N` [Cmpd 77], the IC50 fell in the range of 2000 to 10000 nM. The same measure, in the same setting: to `N#Cc1cnc(NCc2ccccc2-n2cccn2)nc1N[C@H]1CC[C@@H](O)CC1` [Cmpd 21] belongs 2000 to 10000 nM; to `CC1(C)C[C@H](Nc2nc(NCCc3cccc(Cl)c3C(F)(F)F)ncc2C#N)CC[C@@H]1O` [Cmpd 182], 100 to 800 nM. Turning to `CC1(C)[C@@H](O)C[C@H]1Nc1nc(NCCc2ccc(C#N)c(F)c2)ncc1C#N` [Cmpd 147], the half-maximal inhibitory concentration (IC50) lay within 100 to 800 nM.

For the compound `CC1(C)C[C@@H](Nc2nc(NCC(O)c3ccc(OC(F)F)cc3)ncc2C#N)CC[C@H]1O` (stereo partly drawn) [Cmpd 50], the IC50 was 2000 to 10000 nM. On the same count and under the same terms, to `CC(C)(O)CNc1nc(NCc2cnccc2C(F)(F)F)ncc1C#N` [Cmpd 6] belongs 100 to 800 nM; to `Cc1ccccc1CNc1ncc(C#N)c(N[C@H]2CC[C@@H](O)CC2)n1` [Cmpd 19], 2000 to 10000 nM; to `CC1(C)C[C@@H](O)CC[C@H]1Nc1nc(NCCc2cccc(Cl)c2)ncc1C#N` [Cmpd 190], < 100 nM. Same read-out and setting: to `CC1(C)C[C@H](Nc2nc(NCC(O)c3ccc(O)cc3)ncc2C#N)CC[C@@H]1O` (stereo partly drawn) [Cmpd 80] belongs 2000 to 10000 nM; to `CC1(C)[C@@H](O)C[C@H]1Nc1nc(NCCc2ccccc2C(F)(F)F)ncc1C#N` [Cmpd 44], 100 to 800 nM; to `CC1(C)C[C@H](Nc2nc(NCCc3ccc(C#N)cc3)ncc2C#N)CC[C@@H]1O` [Cmpd 37], 100 to 800 nM. Consider `COCCOc1ccc(CCNc2ncc(C#N)c(N[C@@H]3C[C@H](O)C3(C)C)n2)cc1` [Cmpd 109], for which the IC50 lay within 100 to 800 nM. As for `N#Cc1cnc(NCCc2cccc(Cl)c2)nc1N[C@H]1CC[C@@H](O)CC1` [Cmpd 68], the IC50 lay within 100 to 800 nM. On to `N#Cc1cnc(NCc2cc(F)ccc2C(F)(F)F)nc1N[C@H]1CC[C@@H](O)CC1` [Cmpd 3], for which the IC50 was < 100 nM.

Regarding `CN1CCN(c2ccccc2CNc2ncc(C#N)c(N[C@H]3CC[C@@H](O)CC3)n2)CC1` [Cmpd 27], the IC50 was in the range of 2000 to 10000 nM. Consider `CN(C)c1ccc(CCNc2ncc(C#N)c(N[C@@H]3C[C@H](O)C3(C)C)n2)cc1` [Cmpd 133], for which the IC50 fell in the range of 100 to 800 nM. Turning to `CC1(C)C[C@H](Nc2nc(NCCc3ccc(C#N)c(OC(F)(F)F)c3)ncc2C#N)CC[C@@H]1O` [Cmpd 144], the IC50 was in the range of 800 to 2000 nM.

As for `CC1(C)C[C@H](Nc2nc(NCCc3cc(Cl)ccc3C(F)(F)F)ncc2C#N)CC[C@@H]1O` [Cmpd 183], the IC50 fell in the range of 100 to 800 nM. Still for that read-out and setting: with `CC1(C)[C@@H](O)C[C@H]1Nc1nc(NCCc2cccc(C(F)(F)F)c2)ncc1C#N` [Cmpd 45] the figure was 100 to 800 nM. For `COc1cccc(CCNc2ncc(C#N)c(N[C@@H]3CC[C@H](O)C(C)(C)C3)n2)c1OC` [Cmpd 96], the IC50 fell in the range of 100 to 800 nM.

Staying with this experiment, now noted: read-out: Act. Level (IC50 in the PKC-theta Assay).
In the case of `CC(F)(F)COc1ncncc1CNc1ncc(C#N)c(N[C@H]2CC[C@@H](O)CC2)n1` [Cmpd 153], the IC50 was < 100 nM. In the case of `CC1(C)C[C@H](Nc2nc(NCCc3ccco3)ncc2C#N)CC[C@@H]1O` [Cmpd 196], the IC50 is 100 to 800 nM.

As for `CC1(C)C[C@H](Nc2nc(NCc3c[n+]([O-])ccc3C(F)(F)F)ncc2C#N)CC[C@@H]1O` [Cmpd 42], the IC50 was < 100 nM.

Regarding `CC1(C)[C@@H](Nc2nc(NCc3cnccc3C(F)(F)F)ncc2C(F)(F)F)C[C@@H]1O` [Cmpd 143], the IC50 lay within 800 to 2000 nM.

Consider `O[C@H]1C[C@@H](Nc2nc(NCc3cnccc3C(F)(F)F)ncc2C(F)(F)F)C1` [Cmpd 95], for which the IC50 lay within 100 to 800 nM. Same read-out and setting: to `C[C@]1(O)CC[C@@H](Nc2nc(NCc3cncnc3-c3ccc(F)cc3)ncc2C#N)CC1` [Cmpd 86] belongs < 100 nM; to `Cc1cccc(Oc2ncncc2CNc2ncc(C#N)c(N[C@H]3CC[C@@H](O)CC3)n2)c1` [Cmpd 45], < 100 nM. Consider `CC1(C)C[C@H](Nc2nc(NCCc3c[nH]c4cc(OC(F)(F)F)ccc34)ncc2C#N)CC[C@@H]1O` [Cmpd 170], for which the IC50 lay in the range of 100 to 800 nM. Still for that read-out and setting: with `C[C@]1(O)CC[C@@H](Nc2nc(NCc3cnccc3C(F)(F)F)ncc2C#N)CC1` [Cmpd 71] the figure was < 100 nM; with `CC1(C)[C@H](O)C[C@@H]1Nc1nc(NCc2cncnc2OCCC(F)(F)F)ncc1C(F)(F)F` [Cmpd 83], < 100 nM; with `CC1(C)[C@@H](CO)C[C@H]1Nc1nc(NCc2cnccc2C(F)(F)F)ncc1C#N` [Cmpd 64], < 100 nM. `CC1(C)[C@H](O)C[C@@H]1Nc1nc(NCc2cnccc2C(F)(F)F)ncc1C(F)(F)F` [Cmpd 120]: the IC50 was in the range of 100 to 800 nM.

With `CC1(C)C[C@H](Nc2nc(NCCc3c[nH]c4c(F)cccc34)ncc2C#N)CC[C@@H]1O` [Cmpd 182], the IC50 was < 100 nM. On to `N#Cc1cnc(NCc2ccccc2Oc2ccccc2)nc1N[C@H]1CC[C@@H](O)CC1` [Cmpd 118], for which the IC50 is 100 to 800 nM.

In the case of `CC1(C)C[C@H](Nc2nc(NCCC3C(=O)Nc4ccccc43)ncc2C#N)CC[C@H]1O` (stereo partly drawn) [Cmpd 158], the IC50 was 100 to 800 nM. As for `CC(C)(F)c1ncncc1CNc1ncc(C#N)c(N[C@H]2CC[C@@](C)(O)CC2)n1` [Cmpd 50], the IC50 was < 100 nM. As to `CC1(C)[C@@H](O)C[C@H]1Nc1nc(NCc2cncnc2-c2ccc(F)cc2)ncc1C#N` [Cmpd 79], the IC50 is < 100 nM. For `Cc1ccnn1CCNc1ncc(C#N)c(N[C@@H]2CC[C@H](O)C(C)(C)C2)n1` [Cmpd 193], the IC50 lay within 2000 to 10000 nM.

As for `CC1(C)[C@H](O)C[C@H]1Nc1nc(NCc2cnccc2C(F)(F)F)ncc1C(F)(F)F` [Cmpd 33], the IC50 was < 100 nM. Consider `Cc1ccc(Oc2ncncc2CNc2ncc(C(F)(F)F)c(N[C@H]3CC[C@@](C)(O)CC3)n2)cc1` [Cmpd 31], for which the IC50 was < 100 nM. As for `C[C@@H]1CC[C@@H](Nc2nc(NCc3cncnc3OCC(C)(F)F)ncc2C#N)C[C@H]1O` [Cmpd 157], the IC50 lay in the range of 100 to 800 nM. `CC1(C)[C@@H](CO)C[C@H]1Nc1nc(NCc2c[n+]([O-])ccc2C(F)(F)F)ncc1C#N` [Cmpd 53]: the IC50 was < 100 nM. Take `CC1(C)C[C@H](Nc2nc(NCc3cncnc3C(F)(F)F)ncc2C#N)CC[C@@H]1O` [Cmpd 43]: the IC50 was < 100 nM. Turning to `CC1(C)C(Nc2nc(NCc3cncnc3OCCC(F)(F)F)ncc2C#N)C[C@H]1O` (stereo partly drawn) [Cmpd 77], the IC50 was < 100 nM. In the case of `N#Cc1cnc(NCc2cnccc2C(F)(F)F)nc1N[C@H]1C[C@H](O)C1` [Cmpd 108], the IC50 was in the range of 100 to 800 nM. Turning to `COc1ccc2c(CCNc3ncc(C#N)c(N[C@@H]4CC[C@H](O)C(C)(C)C4)n3)c[nH]c2c1` [Cmpd 183], the IC50 is < 100 nM.

On to `N#Cc1cnc(NCc2cnccc2C(F)(F)F)nc1NC12CC3CC(CC(O)(C3)C1)C2` [Cmpd 124], for which the IC50 fell in the range of 800 to 2000 nM. With `COc1ccc2c(CCNc3ncc(C#N)c(N[C@H]4CC[C@@H](O)CC4)n3)c[nH]c2c1` [Cmpd 164], the IC50 lay in the range of 800 to 2000 nM.

Regarding `CC1(C)C[C@H](Nc2nc(NCCn3c(=O)[nH]c4ccccc43)ncc2C#N)CC[C@@H]1O` [Cmpd 293], the IC50 fell in the range of 2000 to 10000 nM. As for `CC1(C)C[C@H](Nc2nc(NCCC3C(=O)Nc4ccccc43)ncc2C#N)CC[C@@H]1O` (stereo partly drawn) [Cmpd 247], the IC50 is < 100 nM. For `CC1(C)[C@@H](O)C[C@H]1Nc1nc(NCCc2ccccn2)ncc1C#N` [Cmpd 187], the IC50 was in the range of 2000 to 10000 nM. For `CC1(C)[C@H](CO)C[C@H]1Nc1nc(NCc2cnccc2C(F)(F)F)ncc1C#N` [Cmpd 51], the IC50 was < 100 nM. On to `CC1(C)[C@@H](O)C[C@H]1Nc1nc(NCc2cncnc2OCCC(F)(F)F)ncc1C#N` [Cmpd 4], for which the IC50 is < 100 nM. Take `CC1(C)C(O)C[C@@H]1Nc1nc(NCc2cncnc2OCCC(F)(F)F)ncc1C#N` (stereo partly drawn) [Cmpd 107]: the IC50 is 100 to 800 nM. For `N#Cc1cnc(NCc2cnccc2C(F)(F)F)nc1N[C@H]1CC[C@@H](O)CC1` [Cmpd 75], the IC50 is < 100 nM. On the same count and under the same terms, with `CC1(C)[C@@H](Nc2nc(NCc3cncnc3-c3ccc(F)cc3)ncc2C#N)C[C@@H]1O` [Cmpd 111] the figure was 100 to 800 nM; with `Cc1ccc(Oc2ncncc2CNc2ncc(C(F)(F)F)c(N[C@H]3CC[C@@H](O)CC3)n2)cc1` [Cmpd 19], < 100 nM; with `CC1(C)[C@@H](O)C[C@H]1Nc1nc(NCCCn2ccnc2)ncc1C#N` [Cmpd 188], 2000 to 10000 nM. For `CC1(C)C[C@H](Nc2nc(NCc3cncnc3OCCF)ncc2C#N)CC[C@@H]1O` [Cmpd 21], the IC50 is < 100 nM. As for `CC1(C)C[C@H](Nc2nc(NCCc3cccc4cccnc34)ncc2C#N)CC[C@@H]1O` [Cmpd 147], the IC50 fell in the range of 100 to 800 nM. For `CC1(C)[C@H](O)C[C@@H]1Nc1nc(NCc2cncnc2-c2ccc(F)cc2)ncc1C#N` [Cmpd 133], the IC50 lay within 100 to 800 nM. On to `CC1(C)C[C@H](Nc2nc(NCc3cncnc3-c3ccc(F)cc3)ncc2C(F)(F)F)CC[C@@H]1O` [Cmpd 44], for which the IC50 is < 100 nM.

(Values after patent US9783505B2, “Substituted diaminopyrimidyl compounds, compositions thereof, and methods of treatment therewith” (Signal Pharmaceuticals, LLC, priority 2013, dated 2017).)
